Laboratory results: patent US20250195502A1, “APPLICATION OF TETRACYCLIC COMPOUND IN TREATMENT OF TUMORS” (SHANGHAI SHIJIANG BIOTECHNOLOGY CO., LTD, priority 2022, published 2025)
Where two headings read alike, the source gives them in different places.

How the values were obtained:
Type in all cases: cell-based
[1] = test system: NB-1 (brain neuroblastoma cell); test: Cell viability assay (Promega CellTiter-Glo), inhibitory effect on NB-1; conditions: Homo sapiens, 72 h, 3 days of culture, read-out: inhibitory effect on brain cell line NB-1 (IC50)
Procedure: (§1) The inhibitory effect of the compounds prepared in the Examples of the present invention on various brain tumor cell lines was detected using cell viability assay reagent.
(§2) Cell viability was detected using the Promega CellTiter-Glo kit, cell viability was determined by directly measuring intracellular ATP content. In the experiment, the IC50 value of the compounds prepared in the Examples of the present invention on various brain tumor cell lines was detected.
(§3) Each tumor cell was cultured in relevant medium. After cell passage, the gradient diluted compounds prepared in the Examples of the present invention was added. After 3 days of culture, the relevant IC50 (50% inhibiting concentration) was measured. The name, source and culture conditions of each tumor cell line were as follows:
Cell line NB-1 (ATCC, No. HTB-131) was cultured in 10% fetal bovine serum-containing Leibovitz's L-15 medium (+P/S).

[2] = test system: G-401 (human renal carcinoma Wilms cell); test: Cell viability assay (Promega CellTiter-Glo), inhibitory effect on G-401; conditions: 72 h, 3 days of culture
Procedure: (§4) The inhibitory effect of the compounds prepared in the Examples of the present invention on various tumor cell lines was detected using cell viability assay reagent.
(§5) Cell viability was detected using the Promega CellTiter-Glo kit, cell viability was determined by directly measuring intracellular ATP content. In the experiment, the ICso value of the compounds prepared in the Examples of the present invention on various tumor cell lines was detected.
as §3
Cell line G-401 (ATCC, No. CRL-1441) was cultured in 10% fetal bovine serum-containing McCoy's 5a medium (+P/S).

[3] = test system: ov-NNMT NCI-H82 cell (NNMT protein-overexpressing NCI-H82); test: Cell viability assay (Promega CellTiter-Glo), inhibitory effect on ov-NNMT NCI-H82 cell; conditions: Homo sapiens
Procedure: (§6) The role of expression level of NNMT gene and DNMT1 in the sensitivity of NCI-H82 cell to the compounds prepared in the Examples of the present invention was determined
(§7) The expression of NNMT protein in NCI-H82 cell was overexpressed by inserting the NNMT gene into NCI-H82 cell using a viral vector, and the NNMT protein-overexpressing NCI-H82 cell (ov-NNMT NCI-H82 cell) was obtained. The expression of DNMT1 in NCI-H82 cell was knocked down transfecting (the by shRNA nucleotide sequence of shRNA was […] TTTTTG (SEQ ID No: 2)) using a viral vector, and the NCI-H82 cell with low expression of DNMT1 protein (sh-DNMT1 NCI-H82 cell) was obtained. The control NCI-H82 cell (Con-NCI-H82 cell) was obtained by transfecting NCI-H82 cell with empty virus vector without carrying NNMT gene and shRNA. The expressing content of NNMT protein and DNMT1 protein in the Con-NCI-H82 cell, the expressing content of NNMT protein in the ov-NNMT NCI-H82 cell, and the expressing content of DNMT1 protein in the sh-DNMT1 NCI-H82 cell were detected using Western Blot assay (as shown in FIG. 15 and FIG. 16), it could be seen from FIG. 15 and FIG. 16 that the NNMT protein was overexpressed in the ov-NNMT NCI-H82 cell and the expression of DNMT1 protein was knocked down (i.e, low expression) in the sh-DNMT1 NCI-H82 cell compared with the expression level of NNMT protein and DNMT protein in the Con-NCI-H82 cell.

[4] = test system: MDA-MB-453 (breast cancer cell); test: Cell viability assay (Promega CellTiter-Glo), inhibitory effect on MDA-MB-453; conditions: Homo sapiens, 72 h, 3 days of culture
Procedure: as §4, §5, §3
Cell line MDA-MB-453 (ATCC, No. HTB-131) was cultured in 10% fetal bovine serum-containing Leibovitz's L-15 medium (+P/S).

[5] = test system: CFPAC-1 (human pancreatic cancer cell); test: Cell viability assay (Promega CellTiter-Glo), inhibitory effect on CFPAC-1; conditions: 72 h, 3 days of culture
Procedure: as §4, §5, §3
Cell line CFPAC-1 (ATCC, No. CRL-1918) was cultured in 10% fetal bovine serum-containing IMDM medium (+P/S).

[6] = test system: 786-O (clear cell renal cell adenocarcinoma cell); test: Cell viability assay (Promega CellTiter-Glo), inhibitory effect on 786-O; conditions: Homo sapiens, 786-0, 72 h, 3 days of culture
Procedure: as §4, §5, §3
Cell line 786-0 (ATCC, No. CRL-1932) was cultured in 10% fetal bovine serum-containing RPMI1640 medium (+P/S).

[7] = test system: SW48 (human colon adenocarcinoma cell); test: Cell viability assay (Promega CellTiter-Glo), inhibitory effect on SW48; conditions: 72 h, 3 days of culture
Procedure: as §4, §5, §3
Cell line SW48 (ATCC, No. CCL-231) was cultured in 10% fetal bovine serum-containing Leibovitz's L-15 medium (+P/S).

[8] = test system: SF126 (human glioblastoma multiforme cell); test: Cell viability assay (Promega CellTiter-Glo), inhibitory effect on SF126
Procedure: as §4, §5, §3
Cell line SF126 (JCRB, No. IFO50286) was cultured in 10% fetal bovine serum-containing EMEM medium (+P/S).
as §1, §2

[9] = test system: Con-NCI-H82 cell (NCI-H82 transfected with empty virus vector); test: Cell viability assay (Promega CellTiter-Glo), inhibitory effect on Con-NCI-H82 cell; conditions: Homo sapiens; NCI-H82 transfected with empty virus vector (control); CellTiter-Glo; read-out: inhibitory effect on Con-NCI-H82 (IC50)
Procedure: as §6, §7

[10] = test system: NCI-H82 (human small cell lung cancer cell); test: Cell viability assay (Promega CellTiter-Glo), inhibitory effect on NCI-H82; conditions: 72 h, 3 days of culture
Procedure: as §4, §5, §3
Cell line NCI-H82 (ATCC, No. HTB-175) was cultured in 10% fetal bovine serum-containing RPMI1640 medium (+P/S).

[11] = test system: D341 Med (cerebellar medulloblastoma cell); test: Cell viability assay (Promega CellTiter-Glo), inhibitory effect on D341 Med; conditions: Homo sapiens, 72 h, 3 days of culture, read-out: inhibitory effect on brain cell line D341 Med (IC50)
Procedure: as §1, §2, §3
Cell line D341 Med (ATCC, No. HTB-187) was cultured in 20% fetal bovine serum-containing EMEM medium (+P/S).

[12] = test system: sh-DNMT1 NCI-H82 cell (DNMT1 knocked down NCI-H82); test: Cell viability assay (Promega CellTiter-Glo), inhibitory effect on sh-DNMT1 NCI-H82 cell; conditions: Homo sapiens, NCI-H82 with DNMT1 knocked down by shRNA
Procedure: as §6, §7

[13] = test system: GB-1 (human brain glioblastoma cell); test: Cell viability assay (Promega CellTiter-Glo), inhibitory effect on GB-1; conditions: 72 h, 3 days of culture
Procedure: as §4, §5, §3
Cell line GB-1 (JCRB, No. IFO50489) was cultured in 10% fetal bovine serum-containing DMEM medium (+P/S).
as §1, §2

[14] = test system: Kelly (brain neuroblastoma cell); test: Cell viability assay (Promega CellTiter-Glo), inhibitory effect on Kelly; conditions: Homo sapiens, 72 h, 3 days of culture, read-out: inhibitory effect on brain cell line Kelly (IC50)
Procedure: as §1, §2, §3
Cell line Kelly (ECACC, No. 92110411) was cultured in 10% fetal bovine serum and 2 mM glutamine-containing RPMI1640 medium.

[15] = 72 h, SF-126, 3 days of culture, Table 3, read-out: inhibitory effect on SF-126 (IC50)
[16] = SF-126, 72 h, SF126, 3 days of culture, Table 4, read-out: inhibitory effect on brain cell line SF126 (IC50)
[17] = Table 3, read-out: inhibitory effect on GB-1 (IC50)
[18] = Table 4, read-out: inhibitory effect on brain cell line GB-1 (IC50)

| IC50 [1] [nM] | IC50 [2] [nM] | IC50 [3] [nM] | IC50 [4] [nM] | IC50 [5] [nM] | IC50 [6] [nM] | IC50 [7] [nM] | IC50 [8, 15] [nM] | IC50 [8, 16] [nM] | IC50 [9] [nM] | IC50 [10] [nM] | IC50 [11] [nM] | IC50 [12] [nM] | IC50 [13, 17] [nM] | IC50 [13, 18] [nM] | IC50 [14] [nM] | SMILES |
| --- | --- | --- | --- | --- | --- | --- | --- | --- | --- | --- | --- | --- | --- | --- | --- | --- |
| 300 | 1270 | 2880 | 1070 | 21700 | 9090 | 1160 | 9800 | 9800 | 1340 | 1340 | 1630 | 4050 | 14800 | 14800 | 1290 | COc1ccc2c(CCC(C)C)c3[n+](cc2c1OC)CCc1cc2c(cc1-3)OCO2 [compound AB31765] |
| 120 | 180 | 650 | 270 | 4310 | 2100 | 370 | 3700 | 3700 | 260 | 260 | 570 | 980 | 3610 | 3610 | 300 | CCCCCCc1c2c(OC)c(OC)ccc2cc2[n+]1CCc1cc3c(cc1-2)OCO3 [compound AB31767] |
| 1040 | 2040 | 3940 | 350 | 17100 | 20800 | 1370 | 15700 | 15700 | 1870 | 1870 | 1660 | 5810 | 11200 | 11200 | 2210 | COc1ccc2cc3[n+](cc2c1OC(=O)CC12CC4CC(CC(C4)C1)C2)CCc1cc2c(cc1-3)OCO2 [compound AB31771] |
| 230 | 880 | 1520 | 900 | 17900 | 8050 | 790 | 9750 | 9750 | 660 | 660 | 1880 | 1980 | 12600 | 12600 | 1160 | COc1ccc2c(CCc3ccccc3)c3[n+](cc2c1OC)CCc1cc2c(cc1-3)OCO2 [compound AB31780] |

The next lines start with the molecule.

| SMILES | IC50 [1] [nM] | IC50 [2] [nM] | IC50 [3] [nM] | IC50 [4] [nM] | IC50 [5] [nM] | IC50 [6] [nM] | IC50 [7] [nM] | IC50 [8, 15] [nM] | IC50 [8, 16] [nM] | IC50 [9] [nM] | IC50 [10] [nM] | IC50 [11] [nM] | IC50 [12] [nM] | IC50 [13, 17] [nM] | IC50 [13, 18] [nM] | IC50 [14] [nM] |
| --- | --- | --- | --- | --- | --- | --- | --- | --- | --- | --- | --- | --- | --- | --- | --- | --- |
| COc1ccc2cc3[n+](cc2c1NCCc1ccccc1)CCc1cc2c(cc1-3)OCO2 [compound AB31740] | 80 | 930 | 1550 | 200 | 12400 | 5130 | 340 | 7770 | 7770 | 490 | 490 | 530 | 1570 | 7740 | 7740 | 840 |
| COc1ccc2c(Cc3ccc(C(C)(C)C)cc3)c3[n+](cc2c1OC)CCc1cc2c(cc1-3)OCO2 [compound AB31748] | 210 | 320 | 780 | 320 | 4950 | 3930 | 420 | 3530 | 3530 | 320 | 320 | 670 | 910 | 3210 | 3210 | 460 |
| CCCCc1c2[n+](cc3c(OC)c(OC)ccc13)CCc1cc3c(cc1-2)OCO3 [compound AB31757] | 150 | 740 | 3320 | 680 | 29900 | 15200 | 650 | 16000 | 16000 | 880 | 880 | 2820 | 3820 | 17500 | 17500 | 1500 |
| CCCCCc1c2[n+](cc3c(OC)c(OC)ccc13)CCc1cc3c(cc1-2)OCO3 [compound AB31758] | 120 | 420 | 920 | 400 | 8320 | 5410 | 490 | 5140 | 5140 | 360 | 360 | 980 | 1380 | 6470 | 6470 | 590 |
| CCCCCCc1c2[n+](cc3c(OC)c(OC)ccc13)CCc1cc3c(cc1-2)OCO3 [compound AB31759] | 120 | 310 | 640 | 310 | 8150 | 3180 | 310 | 3940 | 3940 | 270 | 270 | 850 | 1180 | 3470 | 3470 | 410 |
| CCCCCCCc1c2[n+](cc3c(OC)c(OC)ccc13)CCc1cc3c(cc1-2)OCO3 [compound AB31760] | 90 | 150 | 350 | 250 | 2710 | 1600 | 210 | 3890 | 3890 | 150 | 150 | 700 | 710 | 3670 | 3670 | 230 |
